System: logarithmic E. coli cells
Assay: Preservation survival and stability of logarithmic E. coli cells loaded in vitro before foam drying
Assay type: cell-based
Procedure: (3) Loading of fresh electrocompetent E. coli cells before preservation: When applicable, one aliquot of the cell concentrate (3.2 ml of cells in PBS buffer, approx. 2×10^10 cfu/ml) was mixed with 0.8 ml of 50% methyl-glucoside (MAG; 10% final concentration) and incubated at 37° C. for 30 minutes (in vitro loading). A second aliquot (3.2 ml of the cell concentrate) was mixed with 0.8 ml of PBS buffer and incubated on ice for 30 minutes (control, unloaded cells). Similar to loading with MAG, the cells were loaded with 2-deoxyglucose (2-DOG) as described in Example 5 infra.
(4) Preservation of electrocompetent E. coli cells: The cells (resuspended in PBS buffer or on 20% sucrose) were mixed with an equal mass of preservation solution consisting of 45% 2:1 sucrose:raffinose or 45% 4:1 sucrose:MAG on ice. Altematively, the cell pellets were resuspended directly in 22.5% sucrose:raffinose or 22.5% 4:1 sucrose:MAG. The 0.5 g aliquots were distributed in 5 ml glass serum vials or 0.2 g aliquots were distributed in 1.2 ml glass serum vials. To determine the survival in preservation solution before drying, cell-containing mixtures were diluted in PBS buffer containing 20% sucrose and appropriate dilutions were spread plated in duplicate on L-agar plates.
The samples were dried by foam formation. The mixtures were foamed at 0° C. and kept at that temperature until foam formation occurred. After foam was well formed, shelf temperature was increased to 20° C. and drying continued overnight (at least 12 hours).
(5) Assaying the preserved E. coli cells: Dried samples were rehydrated at room temperature. 1 ml of rehydration solution (20% sucrose) was added to the 5 ml vials and 0.2 ml was added to the 1.2 ml vials. For the determination of preservation survival, rehydrated cells were diluted and spread plated in duplicate on L-agar plates. Plates were incubated at 37° C. overnight and colonies were counted the following day.
Bacterial culture was grown until OD550=0.5 was reached (mid-log growth stage). The cell concentrates were prepared as described previously. Control cells, which were not loaded, were incubated on ice for 30 minutes. Cell concentrates were incubated with different amounts (0.15-1%, 5%, 10% and 15%) of glucose and glucose nonmetabolizable analogs at 37° C. for 30 minutes (loading). These mixtures were preserved as described previously.
Accumulation of MAG in the cells prior to drying enhances preservation of logarithmic E. coli cells. Two cell concentrates (harvested at mid-log growth stage) were prepared as described previously. To induce uptake of MAG, 0.5% glucose was added to the growth medium (“induced culture”). Both concentrates were incubated with 10% MAG at 37° C. for 30 minutes (loading). When loading was completed, one concentrate was diluted 100-fold in PBS buffer and incubated at 37° C. for an additional 30 minutes to induce expulsion of the pre-accumulated MAG. Both concentrates were preserved as described previously.
Mid-logarithmic culture was prepared as described previously. 0.5% glucose was added to the growth medium (“induced cells”). The culture was concentrated 10-fold and the concentrates were incubated for 30 minutes with 10% MAG at different temperatures (0, 20, 40, and 60° C.). The mixtures were preserved as described previously.
Effect of incubation time on accumulation of MAG in logarithmic E. coli cells. Cell concentrates were prepared as described previously (0.5% glucose was added to the growth medium) and incubated with 10% MAG at 37° C. for 0, 2.5, 5, 15, 30, and 60 minutes. The mixtures were preserved as described previously.
Effect of growth stage on accumulation of MAG in E. coli cells. E. coli cultures were grown in L-broth with 0.5% glucose as described previously and harvested at OD550=0.1 (early-log), 0.5 (mid-log), 1.0 (late-log) and 2.0 (stationary cells). The cells in each culture were concentrated and split in two aliquots. […]

For O=CC[C@@H](O)[C@H](O)[C@H](O)CO [Sample 2-DOG, 2-deoxyglucose], the survived drying (mid-logarithmic cells loaded with 0.1-1% at 37° C. for 30 minutes) was 9-12%, the survived drying (mid-logarithmic cells loaded with 5% at 37° C. for 30 minutes) was 20% and the survived drying (mid-logarithmic cells loaded with 10% at 37° C. for 30 minutes) was 16%. The survived drying (mid-logarithmic cells loaded with 15% at 37° C. for 30 minutes) was 20%.
